Type in all cases: cell-based, human
The test system of one assay is BAX mRNA. Briefly: drug-induced BAX mRNA expression in whole blood of healthy adults. To be noted: for Bax induction: 20 μM BLM or 100 μM VP-16, 4 hours at 37° C., ΔCt smaller than p21, not induced in 1 or 2 individuals (FIG. 6); for BAX responses compared with p21 and PUMA: 100 μM VP-16 or 20 μM BLM, 2 hours at 37° C., p<0.01 (FIG. 14). The text has this: (§1) Blood was obtained from healthy adults and from two leukemic non-Hodgkin's malignant lymphoma patients. U937, KG-1, and Jurkat cells were obtained from American Type Culture Collection (ATCC, Manassas, Va.), and maintained in RPMI 1640 supplemented with 10% fetal calf serum. Of these, U937 cells are a human histiocytic lymphoma cell line, KG-1 cells are a human bone marrow myelogenous leukemia cell line, and Jurkat cells are a human T-cell lymphoblast-like, leukemia derived cell line. […] For human experiments, blood aliquots were stimulated with various anti-cancer drugs at 37° C. for 2 hours, then both p21 and BAX mRNA were measured. The anti-cancer drugs used in this study were clinical drugs, and the concentration of each drug was adjusted to typical blood levels 3-6 hours after intravenous administration.
The mRNA and cDNA were prepared from whole blood. In brief, home-made 96-well filterplates were placed over collection plates, and 150 μl 5 mM Tris, pH 7.4, was applied. Following centrifugation at 120×g for 1 min at 4° C., 50 μl of blood samples were applied to each well and immediately centrifuged at 120×g for 2 min at 4° C., followed by washing of each well with 300 μl PBS once with centrifugation at 2000×g for 5 min at 4° C. Then, 60 μl stock lysis buffer, containing for example 0.5% N-Lauroylsarcosine, 4×SSC, 10 mM Tris HCl, pH 7.4, 1 mM EDTA, 0.1% IGEPAL CA-630, and 1.791 M guanidine thiocyanate, supplemented with 1% 2-mercaptoethanol (Bio Rad, Hercules, Calif., USA), 0.5 mg/ml proteinase K (Pierce, Rockford, Ill., USA), 0.1 mg/ml salmon sperm DNA (5 Prime Eppendorf/Brinkmann, Westbury, N.Y., USA), 0.1 mg/ml E. coli tRNA (Sigma), a cocktail of 10 mM each of the specific reverse primers shown in Table 1, and standard RNA34 oligonucleotides, were applied to the filterplates, followed by incubation at 37° C. for 10 min. The filterplates were then placed over oligo(dT)-immobilized microplates (GenePlate, RNAture), and centrifuged at 2000×g for 5 min at 4° C. Following overnight storage at 4° C., the microplates were washed with 100 μl plain lysis buffer 3 times, followed by 150 μl of wash buffer (0.5 M NaCl, 10 mM Tris, pH 7.4, 1 mM EDTA) 3 times at 4° C. The cDNA was directly synthesized in each well by adding 30 μl buffer containing 1× RT-butter, 1.25 mM each of dNTP, 4 units rRNasin, and 80 units of MMLV reverse transcriptase (Promega) (without primers), and incubation at 37° C. for 2 hours. The specific primer-primed cDNA existed in solution, and oligo(dT)-primed cDNA stayed immobilized in the microplate. […] The Ct was determined by analytical software (SDS, ABI). […]

Assay [1] deals with p21 mRNA. Briefly: drug-induced p21 mRNA expression in whole blood of healthy adults. To be noted: for p21 mRNA expression: healthy leukocytes, 2 hours at 37° C. (FIG. 1); for kinetics of p21 induction / levels of p21 mRNA upon stimulation: 0-8 hours at 37° C., 20 μM BLM.
From the text: as §1
The mRNA and cDNA were prepared from whole blood. In brief, home-made 96-well filterplates were placed over collection plates, and 150 μl 5 mM Tris, pH 7.4, was applied. Following centrifugation at 120×g for 1 min at 4° C., 50 μl of blood samples were applied to each well and immediately centrifuged at 120×g for 2 min at 4° C., followed by washing of each well with 300 μl PBS once with centrifugation at 2000×g for 5 min at 4° C. Then, 60 μl stock lysis buffer, containing for example 0.5% N-Lauroylsarcosine, 4×SSC, 10 mM Tris HCl, pH 7.4, 1 mM EDTA, 0.1% IGEPAL CA-630, and 1.791 M guanidine thiocyanate, supplemented with 1% 2-mercaptoethanol (Bio Rad, Hercules, Calif., USA), 0.5 mg/ml proteinase K (Pierce, Rockford, Ill., USA), 0.1 mg/ml salmon sperm DNA (5 Prime Eppendorf/Brinkmann, Westbury, N.Y., USA), 0.1 mg/ml E. coli tRNA (Sigma), a cocktail of 10 mM each of the specific reverse primers shown in Table 1, and standard RNA34 oligonucleotides, were applied to the filterplates, followed by incubation at 37° C. for 10 min. The filterplates were then placed over oligo(dT)-immobilized microplates (GenePlate, RNAture), and centrifuged at 2000×g for 5 min at 4° C. Following overnight storage at 4° C., the microplates were washed with 100 μl plain lysis buffer 3 times, followed by 150 μl of wash buffer (0.5 M NaCl, 10 mM Tris, pH 7.4, 1 mM EDTA) 3 times at 4° C. The cDNA was directly synthesized in each well by adding 30 μl buffer containing 1× RT-butter, 1.25 mM each of dNTP, 4 units rRNasin, and 80 units of MMLV reverse transcriptase (Promega) (without primers), and incubation at 37° C. for 2 hours. The specific primer-primed cDNA existed in solution, and oligo(dT)-primed cDNA stayed immobilized in the microplate. For TaqMan PCR (FIGS. 1, 3, 4), the resultant 4 μl cDNA solution was directly transferred to 384-well PCR plates, to which 5 μl of TaqMan universal master mix (ABI) and 1 μl oligonucleotide cocktail (15 μM each of forward and reverse primer, and 3-6 μM TaqMan probe) were applied, and PCR was conducted in PRISM 7900HT (ABI), with one cycle of 95° C. for 10 min followed by 45 cycles of 95° C. for 30 sec, 55° C. for 30 sec, and 60° C. for 1 min. For SYBR Green PCR (see FIG. 6), cDNA was diluted 3-4 fold in water, and 4 μl cDNA solution was directly transferred to 384-well PCR plates, to which 5 μl of a master mix (BioRad, Hercules, Calif.) and 1 μl of oligonucleotide cocktail (15 μM each of forward and reverse primer) were applied, and PCR was conducted in PRISM 7900HT (ABI), with one cycle of 95° C. for 10 min followed by 45 cycles of 95° C. for 30 sec and 60° C. for 1 min. Each gene was amplified in separate wells. The Ct was determined by analytical software (SDS, ABI).
In 8-well strip microtubes, 1.4 μl of 50× concentrations of drugs or controls (phosphate buffered saline (PBS) or DMSO) were added, and stored at −20° C. until use. […] Seventy μl of fresh heparinized whole blood was added into each well in triplicate, and incubated at 37° C. for 2-8 hours with the cap closed. For radiation treatment, blood was stimulated at designated doses using cesium-137.

Assay [2] relates to p21 mRNA. Briefly: drug-induced p21 mRNA expression in whole blood of leukemia and lymphoma patients.
The mark [3] stands for this setting: heparinized whole blood, 100 μM VP-16 (FIG. 5B).

As to `COc1cc([C@@H]2c3cc4c(cc3[C@@H](O[C@@H]3O[C@@H]5CO[C@@H](C)O[C@H]5[C@H](O)[C@H]3O)[C@H]3COC(=O)[C@H]23)OCO4)cc(OC)c1O` [VP-16, etoposide], in the assay on BAX mRNA, the Bax induction result is reported as “induced”; the “BAX responses compared with p21 and PUMA” value is “significantly less than those of p21 and PUMA”. In the assay with p21 mRNA [1] (10 μM VP-16, 2 hours at 37° C. (FIG. 9A)), the p21 induction entry is “failed to induce p21 in many cases”. Further, the p21 expression entry with p21 mRNA [1] (100 μM VP-16, 2 hours at 37° C. (FIG. 9A)) is reported as “majority of individuals exhibited increased p21 expression”. Further, in the assay on p21 mRNA [1] (10 μM etoposide), the “p21 mRNA expression” value is “no significant p21 mRNA expression”. Also, in the assay on p21 mRNA [1] (100 μM etoposide), the “p21 mRNA expression” value was “expressed significantly”. Besides, in the assay with p21 mRNA [1] (setting [3]), the “kinetics of p21 induction” value is reported as “transient induction”, the “levels of p21 mRNA upon stimulation” value is listed as “significantly increased” and the “peak of transient p21 induction” value fell in the range of 2 to 4 h. In addition, in the assay with p21 mRNA [2] (leukemic lymphoma patient 2, 2 hours at 37° C., drug concentrations (FIG. 3)), the “p21 mRNA induction” value is given as “induced”.

On to bleomycin [BLM], for which, in the assay on BAX mRNA, the Bax induction entry is recorded as “induced”; the “BAX responses compared with p21 and PUMA” value was “significantly less than those of p21 and PUMA”. Besides, the “concentration at which significant induction of p21 was observed” value in the assay with p21 mRNA [1] (0-20 μM BLM, 4 hours at 37° C. (FIG. 7)) was “more than 0.1 VM”. In addition, the p21 induction entry in the assay with p21 mRNA [1] (BLM at concentrations as low as 0.2 μM, 2 hours at 37° C., all cases (FIG. 10A)) is listed as “induced”. Besides, in the assay with p21 mRNA [1] (setting [3]), the “kinetics of p21 induction” value is given as “increased continuously for 8 hours” and the “levels of p21 mRNA upon stimulation” value is on record as “significantly increased”. The “BLM-induced p21 responses (ΔCt) compared with healthy donors” value in the assay on p21 mRNA [2] (1 μM BLM, 2 hours at 37° C., 13 leukemia and lymphoma patients vs 27 healthy donors, p=0.000002 (FIG. 15)) is “less than those of healthy control”.

These data come from patent publication US20090011410A1, “METHOD FOR TAILORING ADMINISTRATION OF DRUGS BY QUANTITATION OF MRNA” (priority 2004, published 2009).
